Source: patent US20070203060A1, “Casein Derived Peptides And Therapeutic Uses Thereof” (priority 2004, published 2007)
Entries after “also recorded” stand apart in the source; their conditions may differ.

Experiments:
[1] = system: murine primary bone marrow cells (CFU-GEMM); assay: Multipotential colonies (CFU-GEMM) from murine bone marrow cells, colony and differential counts; type: cell-based, mouse; details: for megakaryocyte formation and development (in words): 8 days treatment; for Early (E.MK) megakaryocyte formation (in words): 25 μg or more, 14 days; for Early (E.MK) megakaryocyte formation (in words) / increase in total megakaryocyte proliferation over controls: FIG. 21; for increase in total megakaryocyte proliferation over controls: differential count
Method: Proliferation of megakaryocytes in multipotential colonies (CFU-GEMM) from murine Bone Marrow cells: Primary bone marrow cells (1×10^5 per ml) from 8-12 week-old C3H/HeJ mice were grown in serum-free methyl cellulose-IMDM medium for 8-9 days at 5% CO2, 95% air, at 37° C. The medium, appropriate for the growth of multipotential colonies (CFU-GEMM), contained 1% BSA (Sigma), 10^−4 M thioglycerol (Sigma), 2.8×10^−4 M human transferrin (TF, Biological industries, Israel), 10% WEHI-CM as a source of IL-3 and 2 units per ml erythropoietin (rhEPO, R & D Systems, Minneapolis). […] They were picked with a micropipette, cytocentrifuged and stained with May-Grunwald-Giemsa for differential counts. At least 700 cells were counted for each preparation. […]

[2] = system: platelets of myeloablated, bone marrow transplanted mice; assay: Platelet reconstitution in irradiated bone marrow transplant recipient mice; type: in vivo, mouse; details: for enhancement of platelet counts compared to control mice: F1 mice, 750 cGy, 1 mg i.v., 10 days post-transplantation; for increase in platelet counts over untreated controls / platelet count: 800 cGy, 4 daily i.p. injections; for increase in platelet counts over untreated controls: 100 μg per mouse
Method: Leukocyte and platelet reconstitution in bone marrow transplant recipient mice: BALB/c mice were sub-lethally irradiated at a source to skin distance of 70 cm, dosage of 50 cGy per minute, for a total of 600 cGy. The irradiated mice were reconstituted with syngeneic bone marrow as described above and injected intravenously 24 hours later with 1 mg per animal peptides derived from natural casein, synthetic peptides derived from casein (13-26 amino acids, see Table 3 above), or human serum albumin (controls), following a double-blinded protocol. Leukocyte reconstitution was determined according to cell count in peripheral blood collected at indicated intervals from 6 to 12 days post treatment. Platelet reconstitution was determined by cell count in blood collected from the retro orbital plexus, into EDTA-containing vials, at indicated intervals from day 6 to day 15 post treatment.
In an additional series of experiments, CBA mice were lethally irradiated (900 cGy), reconstituted with BM cells and treated with peptides derived from natural casein or human serum albumin as described above. Platelet reconstitution was assayed as mentioned above.
[…] Platelet reconstitution was assayed at 10 and 12 days post-transplantation.

[3] = system: HIV-1 infection of CEM cells; assay: Inhibition of in vitro HIV-1 infection of CEM lymphocytes (cell counts, P24 antigen assay); type: cell-based
Method: Peptides: Peptides (either peptides derived from natural casein or synthetic peptides derived from casein (2-26 amino acids in length, see table 3) supplied as lyophilized powder were resuspended in RPMI complete medium and added to cell cultures at a final concentrations of 50 to 1000 μg per ml.
Cells: Several types of freshly isolated human cells (primary cells) and cell lines are known to be susceptible to in vitro HIV-1 infection, although essentially any cell displaying even low surface levels of the CD4molecule can be considered a potential target for HIV-1 infection. Two commonly used human cell lines which are highly sensitive for HIV-1 infection were chosen, CEM and Sup-T1.
CEM is a human T4-lymphoblastoid cell line initially derived by G. E. Foley et al. [(1965), Cancer 18:522] from peripheral blood buffy coat of a person with acute lymphoblastic leukemia. These cells were continuously maintained in suspension in medium, and have been used widely for analysis of infectivity, antiviral agents and neutralizing antibodies.
Virus: The HIV virus strain employed was HIV-1IIIB, originally designated HTLV-IIIB. Concentrated culture fluids of peripheral blood from several patients with AIDS or related diseases were used to establish a permanent productive infection in H-9 cells. This subtype B virus has high capacity to replicate in human T-cell lines. Viral titer was 5.38 ng per ml in stock solution.
HIV-1 P^24 antigen capture assay: An HIV-1 P^24 Antigen capture assay kit employed was designed to quantitate the HIV-1 P^24 core antigen, which is proportionally related to the degree of viral production in cells. This kit was purchased from the AIDS Vaccine program of the SAIC-NCI-Frederick Cancer Research Institute, P.O. Box B, Frederick, Md. 21702, USA and included 96 well plates coated with monoclonal antibody to HIV-1 P^24, primary antibody-rabbit anti-HIV P^24 serum, secondary antibody-Goat anti-rabbit-IgG (H+ L) peroxidase conjugated antibody, TMB peroxidase substrate system and lysed HIV-1 P^24 standard. The HIV-1 P^24 antigen capture assay was analyzed by Organon-Technica ELISA reader at 450 nm with a reference at 650 nm.
HIV-1 P^24 antigen capture ELISA: HIV infection was measured with an indirect enzyme immunoassay which detects HIV-1 P^24 core antigens in tissue culture media. Tissue culture supernatant was reacted with primary rabbit anti-HIV-1 P^24 antigen and visualized by peroxidase conjugated goat anti rabbit IgG. The reaction was terminated by adding 4N H2SO4, wherein the intensity of the color developed is proportional to the amount of HIV-1 antigen present in the tissue culture supernatant.
HIV infection of human cultured CD4 cells: For longer incubations, the cells (CEM, Sup-T1) were preincubated with several increasing concentrations of peptides derived from natural casein (50-1000 μg per ml) or synthetic peptides derived from casein (10-500 μg per ml) for 24 (for synthetic and natural peptides) and 48 (only for natural peptides) hours and HIV-1IIIB (45 pg per ml final concentration) was added to each well thereafter. For the shorter incubations (3 hours), HIV-1IIIB was preincubated with the peptides for 3 hours and then added to cells (5000 cells/well) in tissue culture plates. Controls were IF (Infected, cells cultured with HIV-1 and without peptides), UIF (Uninfected, cells cultured without HIV-1 and without peptides) and UIF+Ch (Uninfected+peptides derived from natural casein, cells cultured in the presence of peptides derived from natural casein {50-1000 μg per ml}) to test the effect of peptides derived from natural casein and synthetic peptides derived from casein on cell viability and growth. Cells were counted for viability and proliferation rate on day 7, 10 and day 14 post infection (the day of P^24 antigen culture supernatant harvest). Cells and tissue culture supernatants (media) were harvested and lysed immediately in 1/10 volume of 10% Triton X-100. […]

[4] = system: peripheral white blood cells of myeloablated, bone marrow transplanted mice; assay: Leukocyte reconstitution in irradiated bone marrow transplant recipient mice; type: in vivo, mouse; details: for peripheral white blood cell count: BALB/c, 600 cGy, 1 mg per mouse i.p.; for early leukocyte reconstitution (in words): F1 mice, 750 cGy, 1 mg i.v., 5 and 7 days post-transplantation
[5] = system: human Peripheral Blood Stem Cells / K562 target cells; assay: NK activity of cultured human PBSC (35S release from K562 target cells); type: cell-based
Method: From human Peripheral Blood Stem Cells (PBSC): PBSC of G-CSF treated subjects were separated on a FICOLL gradient, washed twice with RPMI-1640 medium containing 10% FCS and glutamine, and seeded into 1.5 ml wells with or without peptides derived from natural casein or synthetic peptides derived from casein, as indicated, (0-500 μg per ml). Following two days incubation the cells were assayed for Natural Killer activity by measuring radioactivity released from ^35S-labeled K562 target cells (NEG-709A, 185.00 MBq, 2.00 mCi EASYTAGth Methionine, L-[^35S] 43.48 TBq per mmol, 1175.0 Ci per mmol, 0.488 ml, Boston USA). Two concentrations of effector cells (2.5×10^5 and 5×10^5 cells per well) were incubated with 5×10^3 target cells per well (effector:target cell ratios of 50:1 and 100:1, respectively) in U-bottomed 96 well tissue culture plates. The cells were incubated for 5 hours at 37° C. in 5% CO2, 95% air and precipitated by 5 minutes centrifugation at 1000 rpm. ^35S release was measured in 50 μl samples of the supernatant liquid.

[6] = system: human bone marrow progenitor cells (CFU-GM); assay: CFU-GM colonies from human bone marrow progenitor cells with IL-3 and G-CSF; type: cell-based; details: 300 μg/ml, G-CSF and IL-3, 14 days
Method: Cells were scored in the macroscopic colonies grown from human bone marrow cells prepared similarly to the CFU-GEMM colonies previously described. Cells were incubated with hematopoietic factors cytokine (IL-3) and colony stimulating factor (G-CSF), and 25 μg or more of synthetic peptides derived from casein: peptide J, representing amino acids 1-22 of α-S1 casein (SEQ ID NO. 21), or β-casein, representing amino acids 193-208 of β-casein (SEQ ID No. 28). Exposure of the human bone marrow progenitor cells to peptides derived from casein was for 14 days. Stimulation of colony formation (CFU) is expressed as the number of myeloid per colonies in 10^5 plated MNCs. Note the synergistic increase (>50% with 100 μg/ml of peptide J, and >30% with 300 μg/ml of synthetic β-casein) in myelocyte formation in cultures exposed to G-CSF, IL-3 and the synthetic peptides derived from β-casein and an N terminal portion of α-S1 casein.
A similar effect of synthetic peptides derived from α-, β- or κ-casein was observed on the proliferation of granulocytes and macrophages from human bone marrow progenitor cells. […] (FIG. 20). Thus, synthetic peptides derived from αS1-, αS2-, β- or κ-casein or combinations thereof are effective in augmenting the effect of granulopoietic factors such as G-CSF on bone marrow hematopoietic progenitor cell differentiation and expansion.

[7] = system: glucose metabolism in NOD mice; assay: Intraperitoneal Glucose Tolerance Test (IPGTT) in NOD mice; type: in vivo, mouse; details: healthy NOD mice after 25 weeks
Method: Intraperitoneal Glucose Tolerance Test (IPGTT): The glucose tolerance test is the definitive method for investigating glucose metabolism and diabetic tendencies in mammals. Twenty five (25) weeks after receiving Synthetic peptides derived from casein, response to a glucose load was assessed with an intraperitoneal glucose tolerance test. Glucose injection consisted of 1 g/kg body weight. Glycemic values were determined from blood drawn prior to test (0 minutes) and 60 minutes after loading.

RPKHPIKHQGLPQEVLNENLLRFF
megakaryocyte formation and development (in words) [1]: significant increase

MAIPPKKNQDKTEIPTINTIAS [κ 106-127]
Early (E.MK) megakaryocyte formation (in words) [1]: dramatic effect
increase in total megakaryocyte proliferation over controls [1]: 21%
enhancement of platelet counts compared to control mice ([2]; listed as SEQ ID NO: 30): 26%

RPKHPIKHQGLPQEVLNENLL
megakaryocyte formation and development (in words) [1]: significant increase

RPKHPIKHQGL [2a]
megakaryocyte formation and development (in words) [1]: significant increase

RPKHPIKHQGLPQEVLN
megakaryocyte formation and development (in words) [1]: significant increase

RPKHP [3P]
HIV-P24 antigen ([3]; virus pre-treated 3 hours, 10 μg per ml, 7 days post infection, control 0.52): 0.26 ng P^24 Ag per ml
HIV-P24 antigen ([3]; virus pre-treated 3 hours, 25 μg per ml, 7 days post infection, control 0.52): 0.18 ng P^24 Ag per ml
megakaryocyte formation and development (in words) [1]: significant increase

RPKHPIKHQGLPQEVLNENLLR [J]
peripheral white blood cell count ([4]; day 10): 2.74 ×10^6 cells per ml
peripheral white blood cell count ([4]; day 12): 5.20 ×10^6 cells per ml
early leukocyte reconstitution (in words) ([4]; listed as SEQ ID NO: 21): dramatic enhancement; also recorded: strong stimulation
Early (E.MK) megakaryocyte formation (in words) [1]: dramatic effect

RPKHPIKHQGLP [3a]
megakaryocyte formation and development (in words) [1]: significant increase
increase in platelet counts over untreated controls ([2]; 10 days post transplantation): up to 35.5%
increase in platelet counts over untreated controls ([2]; 12 days post transplantation): up to 13.5%
platelet count ([2]; 10 days post transplantation): 229000 mL⁻¹
platelet count ([2]; 12 days post transplantation): 622000 mL⁻¹

RPKHPI [4P]
HIV-P24 antigen (in words) ([3]; virus pre-incubated 3 hours, 7 days post infection): dose dependent reduction
cell counts ([3]; virus pre-treated 3 hours, 250 μg per ml, infected control 1.06×10^6): 1.59×10^6
megakaryocyte formation and development (in words) [1]: significant increase
increase in platelet counts over untreated controls ([2]; 12 days post transplantation): 29%
platelet count ([2]; 12 days post transplantation): 872000 mL⁻¹

RPK [1P]
patients responding (of the 5 tested) ([5]; 25 μg/ml peptide): 3
patients responding (of the 5 tested) ([5]; 100 μg/ml peptide): 1
patients responding (of the 5 tested) ([5]; 250 μg/ml peptide): 1
target cell lysis, fold that of untreated controls ([5]; PBS cells from donors with hematopoietic disease): ≥ 2 fold
HIV-P24 antigen ([3]; 100 μg/ml, 7 days post infection, untreated control 0.52): 0.17 ng P^24 Antigen/ml
HIV-P24 antigen ([3]; 500 μg/ml, 7 days post infection, untreated control 0.52): 0.14 ng P^24 Antigen/ml

YQEPVLGPVRGPFPII [β 193-208]
enhancement of granulopoietic stimulating effect of G-CSF (myelocyte formation) ([6]; listed as SEQ ID NO: 28): 30%
enhancement of granulopoietic stimulating effect of G-CSF (myelocyte formation) ([6]; listed as synthetic β-casein): > 30%
early leukocyte reconstitution (in words) ([4]; listed as SEQ ID NO: 28): dramatic enhancement; also recorded: strong stimulation
Early (E.MK) megakaryocyte formation (in words) [1]: dramatic effect
increase in total megakaryocyte proliferation over controls [1]: 32%
enhancement of platelet counts compared to control mice ([2]; listed as SEQ ID NO: 28): 32%

RPKHPIKHQ [X]
glucose tolerance (IPGT) test result in words [7]: no evidence of abnormal glucose metabolism

RPKHPIKHQGLPQEVLNENL
megakaryocyte formation and development (in words) [1]: significant increase

RPKHPIKHQGLPQEVLNE [F]
megakaryocyte formation and development (in words) [1]: significant increase
